Assay results reported in patent US8686155B2, “Aurora kinase modulators and method of use” (Amgen Inc., priority 2006, dated 2014).
Read-outs that look alike come from different tables or passages of the source.

System: phosphorylation of Histone H3 in HeLa cells
Test: HeLa cell 1-hour phospho-histone assay
Assay type: cell-based
Conditions: Homo sapiens, % of cells pHH3 positive, read-out: inhibitory activity (EC50) in the phospho-histone H3 assay
Description: HeLa Cell 1-Hour Phospho-Histone Assay
The purpose of this assay is to test the inhibitory effect of Aurora compounds with respect to phosphorylation of Histone H3 in the cellular context. HeLa cells (9×10^4/well) are plated in black 96-well flat-bottom tissue culture plates and incubated for 40 hours prior to compound addition. Compounds are serially diluted in DMSO, followed by dilution into MEM containing 10 mM HEPES; 10 ul/well of diluted compounds are added to cells (0.5% DMSO final). Cells are incubated for 1 hour at 37° C. in 5% CO2. Cells are then fixed with 3.7% formaldehyde for 10 minutes, washed with wash buffer (1% goat serum and 0.1% Tween 20 in PBS), then permeabilized with 0.5% Triton X in PBS for 15 minutes. After washing with wash buffer, cells are incubated with primary antibody (Upstate #06-507 anti-phospho-histone (Ser 10) antibody (pHH3) for 1 hour at 10 ug/ml. After 2 washes with wash buffer, cells are incubated with secondary antibody (Molecular Probes #A11034 goat anti-rabbit Alexa-488 for 1 hour at 1 ug/ml+Hoechst 33342 nuclear dye at 1 ug/ml (Molecular Probes). Cells are washed 2 times with wash buffer, and buffer replaced with PBS. Plates are scanned on the Cellomics Array Scan (6 fields, ˜2000 cells/well) and % of cells that are pHH3 positive were calculated using the Cellomics algorithm.

EC50	EC50 (unit inferred)	Structure (SMILES)
< 10 µM	< 1 µM	CNc1nccc(-c2cccnc2Oc2ccc(Nc3nnc(-c4cc(C)cs4)c4c3CCC4)cc2)n1 [Example 122, N-(4-((3-(2-(methylamino)-4-pyrimidinyl)-2-pyridinyl)oxy)phenyl)-4-(4-methyl-2-thienyl)-6,7-dihydro-5H-cyclopenta[d] pyridazin-1-amine]
< 10 µM	< 1 µM	CNc1nccc(-c2cccnc2Oc2ccc(Nc3nnc(-c4ccccc4)c4c3CCCC4)cc2)n1 [Example 123, N-(4-((3-(2-(methylamino)-4-pyrimidinyl)-2-pyridinyl)oxy)phenyl)-4-phenyl-5,6,7,8-tetrahydro-1-phthalazinamine]
